Earlier results in publication PMC12300650, “Development and Characterization of a New Oral Antileishmanial Bis(pyridine-2-Carboxamidine) Drug Through Innovative Dissolution Testing in Biorelevant Media Combined with Pharmacokinetic Studies” (Pharmaceutics, 2025).
Read-outs that look alike come from different tables or passages of the source.

[1] = FaSSIF pH 6.5, ref Higashino et al., 2023 [23]
[2] = Two state FaSSGF to FaSSIF, ref Arnold et al., 2011 [22]
[3] = FaSSIF pH 6.8, ref Naing et al., 2024 [24]

| Precipitation time [1] [min] | Supersaturation Time [1] [min] | Precipitation time [2] [min] | Supersaturation Time [2] [min] | Precipitation time [3] [min] | Supersaturation Time [3] [min] | Compound |
| --- | --- | --- | --- | --- | --- | --- |
| 60 to 120 | 30 | 20 to 180 | 20 |  |  | OCCN(CCO)c1nc(N2CCCCC2)c2nc(N(CCO)CCO)nc(N3CCCCC3)c2n1 [Dipyridamole] |
| 30 to 60 | 30 |  |  |  |  | CC(=O)N1CCN(c2ccc(OCC3COC(Cn4ccnc4)(c4ccc(Cl)cc4Cl)O3)cc2)CC1 (centres unmarked) [Ketoconazole] |
|  |  |  |  | 30 to 60 | 30 | CC(C)c1nc(CN(C)C(=O)N[C@H](C(=O)N[C@@H](Cc2ccccc2)C[C@H](O)[C@H](Cc2ccccc2)NC(=O)OCc2cncs2)C(C)C)cs1 [Ritonavir] |
